In ChEMBL document CHEMBL4270494, “Recent insights into synthetic β-carbolines with anti-cancer activities” (Eur J Med Chem, 2017):
Where a name gives a salt, the structure may show the parent alone.

Legend:
A-375 = test: Cytotoxicity against human A375 cells; format: functional, cell-based
IMR-90 = test: Cytotoxicity against human IMR90 cells; format: functional, cell-based
NCI-H1299 = test: Cytotoxicity against human NCI-H1299 cells; format: functional, cell-based
A549 = test: Cytotoxicity against human A549 cells assessed as reduction in cell viability incubated for 48 hrs by MTT assay; format: functional, cell-based; details: A549, 48 h
PC-3 = test: Cytotoxicity against human PC3 cells assessed as reduction in cell viability incubated for 48 hrs by MTT assay; format: functional, cell-based; details: PC-3, 48 h
HT-29 = test: Cytotoxicity against human HT-29 cells assessed as reduction in cell viability incubated for 48 hrs by MTT assay; format: functional, cell-based; details: HT-29, 48 h
B16 = test: Cytotoxicity against mouse B16 cells assessed as reduction in cell viability incubated for 48 hrs by MTT assay; format: functional, cell-based; details: B16, 48 h
MCF7 [1] = test: Induction of apoptosis in human MCF7 cells by Annexin V-FITC dual staining based flow cytometry (reference value: 0.03%); format: functional
MCF7 [2] = test: Cytotoxicity against human MCF7 cells by MTT assay; format: functional, cell-based
CCRF S-180 = test: Antitumor activity against mouse S180 cells implanted in ICR mouse assessed as inhibition of tumor growth at 0.1 umol/kg, ip for 7 consecutive days starting 24 hrs after tumor cell inoculation relative to untreated control; format: functional; details: CCRF S-180, ip, read-out: TGI
HepG2 = test: Cytotoxicity against human HepG2 cells by MTT assay; format: functional, cell-based
HeLa = test: Cytotoxicity against human HeLa cells by MTT assay; format: functional, cell-based
HL-60 = test: Cytotoxicity against human HL60(TB) cells incubated for 48 hrs by SRB assay; format: functional; details: HL-60, 48 h, read-out: LC50 (the source's name)

Q: For `c1ccc2c(c1)[nH]c1c(CNCCOCCNCc3nccc4c3[nH]c3ccccc34)nccc12`, which IC50 (A-375) is on record?
A: 3 µM

Q: And the IC50 (IMR-90)?
A: 1.6 to 201 µM

Q: And the IC50 (NCI-H1299)?
A: 1.6 µM

Q: How did the IC50 (A549) turn out when `COc1cc(C(=O)/C=C/c2cc3c([nH]c4ccccc43)c(-c3cc(OC)c(OC)c(OC)c3)n2)cc(OC)c1OC` was run?
A: 5.3 µM

Q: And the IC50 (PC-3)?
A: 19.6 µM

Q: What about the IC50 (HT-29) of the same compound?
A: 23.1 µM

Q: What about the IC50 (B16) of the same compound?
A: 6.37 µM

Q: `O=C(/C=C/c1cc2c([nH]c3ccccc32)c(-c2ccc(C(F)(F)F)cc2)n1)c1ccco1` was tested. Which Activity (MCF7 [1]) did it give?
A: 58.29%

Q: What about the IC50 (MCF7 [2]) of the same compound?
A: 1.56 to 5.29 µM

Q: With `COc1cc(-c2nc(C(=O)N[C@@H](Cc3c[nH]c4ccccc34)C(=O)N[C@@H](Cc3c[nH]c4ccccc34)C(=O)N[C@@H](CO)C(=O)OCc3ccccc3)cc3c2[nH]c2ccccc23)ccc1O` as the compound, how does the inhibition in vivo at 0.1 µmol/kg (CCRF S-180) read?
A: 62.9%

Q: What does the source list for `CC(=O)N1N=C(c2ccco2)CC1c1cc2c([nH]c3ccccc32)c(-c2ccc(C(F)(F)F)cc2)n1` (configuration not stated)?
A: Activity (MCF7 [1]): 62.64%; IC50 (MCF7 [2]): 1.56 to 5.29 µM

Q: With `COC(=O)c1cc2c([nH]c3ccccc32)c(-c2ccc(OCc3cn(-c4cccc(Cl)c4Cl)nn3)cc2)n1` as the compound, how does the IC50 (HepG2) read?
A: 32 µM

Q: And the IC50 (HeLa)?
A: 46 µM

Q: Which CC50 (HL-60) does the source give for `COc1ccc2[nH]cc(-c3nccc4c3[nH]c3ccc(OC)cc34)c2c1` here?
A: 4.2 µM

Q: `CC[C@H](C)[C@H](NC(=O)[C@H](Cc1c[nH]c2ccccc12)NC(=O)[C@H](Cc1c[nH]c2ccccc12)NC(=O)c1cc2c([nH]c3ccccc32)c(-c2ccc(O)c(OC)c2)n1)C(=O)OCc1ccccc1` was tested. Which inhibition in vivo at 0.1 µmol/kg (CCRF S-180) did it give?
A: 63.4%

Q: Which inhibition in vivo at 0.1 µmol/kg (CCRF S-180) does the source give for `COc1cccc2c1C(=O)c1c(O)c3c(c(O)c1C2=O)C[C@@](O)(C(=O)CO)C[C@@H]3O[C@H]1C[C@H](N)[C@H](O)[C@H](C)O1` [DOXORUBICIN HYDROCHLORIDE] here?
A: 61.1%
